Test results from patent US20090215894A1, “INHIBITION OF PHOSPHATASE ACTIVITY OF SOLUBLE EPOXIDE HYDROLASE AMINO TERMINUS AND USES THEREOF” (REGENTS OF THE UNIVERSITY OF CALIFORNIA, priority 2005, published 2009).
Counter-ions that a name gives are not always drawn. Like-named read-outs stand apart in the source and are kept apart here.

Key:
Assay type in all cases: biochemical
Human Cterm-EH = molecular target: T1, Human Cterm-EH (Homo sapiens, UniProt P34913); assay: Inhibition of Cterm-EH activity by lipid-phosphates, fluorescent assay
T1 construct: use of a truncated enzyme from crude extract versus purified full-length human sEH; made in house; host or cells: baculovirus expression system (insect cells)
T1 sequence (P34913 1-555): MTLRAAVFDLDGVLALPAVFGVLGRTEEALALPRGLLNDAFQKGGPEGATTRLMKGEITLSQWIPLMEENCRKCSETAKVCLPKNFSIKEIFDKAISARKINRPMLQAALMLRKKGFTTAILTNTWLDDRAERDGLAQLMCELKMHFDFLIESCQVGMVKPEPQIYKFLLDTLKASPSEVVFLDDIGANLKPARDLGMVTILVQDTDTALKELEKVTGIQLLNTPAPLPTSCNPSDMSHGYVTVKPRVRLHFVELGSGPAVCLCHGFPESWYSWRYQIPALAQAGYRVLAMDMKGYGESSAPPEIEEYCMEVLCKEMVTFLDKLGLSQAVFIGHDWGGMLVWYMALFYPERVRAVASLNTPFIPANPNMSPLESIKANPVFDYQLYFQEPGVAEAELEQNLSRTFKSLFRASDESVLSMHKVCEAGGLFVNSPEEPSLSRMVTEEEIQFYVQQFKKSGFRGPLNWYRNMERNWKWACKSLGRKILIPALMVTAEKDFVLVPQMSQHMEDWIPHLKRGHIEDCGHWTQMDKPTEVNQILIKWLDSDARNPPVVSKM

Nterm-phos [1] = molecular target: T2, Nterm-phos (Homo sapiens, UniProt P34913); assay: Specific activity of Nterm-phos for lipid-phosphates (phosphoric acid formed); conditions: substrate hydrolysis, 30° C., average ± SD of three experiments
T2 construct: use of a truncated enzyme from crude extract versus purified full-length human sEH; made in house; host or cells: baculovirus expression system (insect cells)
T2 sequence (P34913 1-555): T1 sequence (P34913 1-555)
Protocol: Nterm-Phos activity was measured in Bis-Tris HCl buffer (25 mM PH 7.0) containing 0.1 mg/mL of Fraction V BSA and 1 mM of MgCl2 (buffer A) at 30° C. […] APHP activity was measured as described using 7 as substrate (Newman et al., Proc. Natl. Acad. Sci. USA. 100, 1558-1563 (2003)). Compounds 34-37 were incubated separately with the enzyme for a given time, and then the reaction was stopped by the addition of 100 μL of methanol. The reaction products for compounds 34-37 were extracted with 500 μL of ethyl acetate. The quantification of the alcohol products was performed by LC/MS analysis of 2 μL of the organic phase. The Cterm-EH activity was measured as described previously in buffer A, using either racemic 4-nitrophenyl-trans-2,3-epoxy-3-phenylpropyl carbonate (Dietze et al., Anal. Biochem. 216, 176-187 (1994)) or racemic [^3H]-trans-1,3-diphenylpropene oxide as substrate (Borhan et al., Anal. Biochem. 231, 188-200 (1995)). This latter substrate was also used to measure the activity of the cress sEH and the truncated human sEH.

[2] = molecular target: T3, Human sEH Cterm-EH activity (Homo sapiens, UniProt P34913); assay: Cterm-EH inhibition IC50 with 4-nitrophenyl-trans-2,3-epoxy-3-phenylpropyl carbonate
T3 construct: use of a truncated enzyme from crude extract versus purified full-length human sEH; made in house; host or cells: baculovirus expression system (insect cells)
T3 sequence (P34913 1-555): T1 sequence (P34913 1-555)

Nterm-phos [3] = molecular target: T2, Nterm-phos; assay: Kinetic parameters of Nterm-phos for poly-isoprenyl phosphates (LC/MS of alcohol products)
Protocol: Nterm-Phos activity was measured in Bis-Tris HCl buffer (25 mM PH 7.0) containing 0.1 mg/mL of Fraction V BSA and 1 mM of MgCl2 (buffer A) at 30° C. […] APHP activity was measured as described using 7 as substrate (Newman et al., Proc. Natl. Acad. Sci. […] The quantification of the alcohol products was performed by LC/MS analysis of 2 μL of the organic phase. […] This latter substrate was also used to measure the activity of the cress sEH and the truncated human sEH. […] The Shimadzu […] HPLC system (Shimadzu Scientific Instruments, Columbia, Md.) was set at a flow rate of 0.2 mL/min, and a 2.1×30 mm XTerraTM MS C18 3.5 μm column (Waters, Milford, Mass.) held at 20° C. The samples were kept at 10° C. in the auto-sampler. […] A solvent system consisting of water with 0.1% formic acid (solvent A) and acetonitrile with 0.1% formic acid (solvent B) was used and set at a flow rate of 0.25 mL/min. […] Pyrophosphate was analyzed by direct injection of 5 μL sample into the mass spectrometer at 0.05 mL/min flow rate of 50% A and 50% B. Analytes were detected by electrospray ionization-tandem quadrupole mass spectrometry in multiple reaction monitoring mode (MRM) using a Quattro Premier tandem quadrupole mass spectrometer (Micromass, Manchester, UK). Nitrogen gas flow rates were fixed with a cone gas flow of 25 L/h and a desolvation gas flow of 700 L/h. Electrospray ionization of geraniol, farnesol and geranylgeraniol was performed in positive mode with a capillary voltage fixed at 3.20 kV and a cone voltage fixed at 25 V using a source temperature of 125° C. and a desolvation temperature of 350° C. Capillary voltage and cone voltage were optimized in an infusion experiment. […] However, intense [M+H-18]^+ ions were produced in the source due to water loss. Therefore, these ions were selected as precursor ions to set MRM acquisition mode. Monitored transitions were 137>95 m/z for geraniol, 205>121 m/z for farnesol, and 273>149 m/z for geranylgeraniol at collision voltage of 15 V for all analytes. Argon was used as collision gas (2.2×10^-3 Torr). […] Chromatogram integration and analyte quantification was performed with QuantLynx module of the MassLynx 4.0 software (Micromass, Manchester, UK).

[4] = substrate 50 μM, 5 min preincubation, 30° C., read-out: IC50

In the case of `CC(C)=CCC/C(C)=C/CC/C(C)=C/C1C(COP(=O)(O)OP(=O)(O)O)C1(C)CC/C=C(\C)CCC=C(C)C` (stereo in doubt) [Pre-squalene diphosphate (PSDP), Pre-squalene diphosphate], the “Inhibition (%)” value (Human Cterm-EH; [LP] 14 μM) is reported as 86% and the “Spec. Act.” value (Nterm-phos [1]) is reported as 30 ± 15 nmol/min/mg.
`CC(C)=CCC/C(C)=C/CC/C(C)=C/C1C(COP(=O)(O)O)C1(C)CC/C=C(\C)CCC=C(C)C` (stereo in doubt) [Pre-squalene monophosphate (PSMP), Pre-squalene monophosphate] was tested, and the “Inhibition (%)” value (Human Cterm-EH; [LP] 14 μM) was 30% and the “Spec. Act.” value (Nterm-phos [1]) was 54 ± 22 nmol/min/mg.
`CCCCCCCC/C=C\CCCCCCCC(=O)OCC(COP(=O)(O)O)OC(=O)CCCCCCC/C=C\CCCCCCCC` (stereo not drawn) [1,2-Dioleoyl-glycerol-3-phosphate (DOGP), 1,2-Dioleoyl-glycerol-3-phosphate] was tested, and the “Spec. Act.” value (Nterm-phos [1]) was <0.3 nmol/min/mg.
With `CCCCCCCCCCCCCCCCC(C(=O)O)S(=O)(=O)O` (stereo not drawn) [Compound 10, α-Sulfostearic acid] the IC50 [2, 4] was > 100 µM.
`CCCCCCCCCCCCS(=O)(=O)O` [Compound 12, Sodium dodecyl-sulfonate] was tested, and the IC50 [2, 4] was > 100 µM.
For `O=[N+]([O-])c1ccc(OS(=O)(=O)O)cc1` [Compound 13, 4-Nitrophenyl sulfate], the IC50 [2, 4] was > 100 µM.
With `C[C@H](CCC(=O)NCCS(=O)(=O)O)[C@H]1CC[C@H]2[C@@H]3CC[C@@H]4C[C@H](OS(=O)(=O)O)CC[C@]4(C)[C@H]3CC[C@]12C` [Compound 14, Taurolithocholic acid 3-sulfate] the IC50 ([2]; read-out: IC50) was 90 ± 5 µM.
In the case of `C[C@H](CCC(=O)NCCS(=O)(=O)O)[C@H]1CC[C@H]2[C@@H]3[C@H](O)C[C@@H]4C[C@H](O)CC[C@]4(C)[C@H]3C[C@H](O)[C@]12C` [Compound 15, Taurocholic acid], the IC50 [2] is reported as > 100 µM.
For `C[C@]12CC[C@@H]3c4ccc(OS(=O)(=O)O)cc4CC[C@H]3[C@@H]1CCC2=O` [Compound 16, Estrone-3-sulfate], the IC50 [2, 4] was > 100 µM.
In the case of `O=C[C@H](O)[C@@H](O)[C@@H](O)[C@H](O)COS(=O)(=O)O` [Compound 17, D-Galactose-6-sulfate], the IC50 [2, 4] is reported as > 100 µM.
In the case of `O=C1O[C@H]([C@@H](O)CO)C(O)=C1OS(=O)(=O)O` [Compound 18, L-Ascorbic acid 2-sulfate dipotassium salt], the IC50 [2, 4] is reported as > 100 µM.
In the case of `CC(=O)N[C@H]1C(O)O[C@H](CO)[C@H](OS(=O)(=O)O)[C@@H]1O` (stereo partly drawn) [Compound 19, N-Acetyl-D-galactosamine 4-sulfate], the IC50 [2, 4] is reported as > 100 µM.
With `CC(C)OP(=O)(CP(=O)(OC(C)C)OC(C)C)OC(C)C` [Compound 20, Tetra-isopropyl-methylene diphosphonate] the IC50 [2, 4] was > 100 µM.
In the case of `CCOP(=O)(OCC)C(=O)c1ccccc1` [Compound 22, Diethyl-benzoylphosphonate], the IC50 [2] is reported as > 100 µM.
For `CCOP(=O)(C/C=C/c1ccccc1)OCC` [Compound 24, Diethyl trans-cinnamyl-phosphonate], the IC50 [2] was > 100 µM.
In the case of `CCOP(=O)(Cc1ccc(C)cc1)OCC` [Compound 25, Diethyl 4-methylbenzyl-phosphonate], the IC50 [2] is reported as > 100 µM.
`CCCCCCCCOP(=O)(OCCCCCCCC)c1ccccc1` [Compound 27, Dioctyl-phenyl-phosphonate] showed an IC50 [2, 4] of 92 ± 3 µM.
For `O=P(O)(OCc1ccccc1)OCc1ccccc1` [Compound 28, Di-benzyl-phosphate], the IC50 [2, 4] was > 100 µM.
With `CCCCCC(=O)CP(=O)(OC)OC` [Compound 29, Dimethyl (2-oxoheptyl)-phosphonate] the IC50 [2] was > 100 µM.
`CCOP(=O)(OCC)C(O)C(F)(F)F` (stereo not drawn) [Compound 30, Diethyl (2,2,2-trifluoro-1-hydroxyethyl)-phosphonate] was tested, and the IC50 [2] was > 100 µM.
For `CCOP(=O)(CSCC)OCC` [Compound 31, Diethyl (ethyltiomethyl)phosphonate], the IC50 [2] was > 100 µM.
For `CCCCCCCCCCCCP(=O)(O)O` [Compound 33, Dodecyl phosphonic acid], the IC50 [2, 4] was > 100 µM.
With `CC(C)=CCC/C(C)=C/COP(=O)(O)OP(=O)(O)O` [Compound 34, Geranyl-pyrophosphate] the Km (Nterm-phos [3]; linear curve, above the highest concentration tested) was > 5 µM.
Work on `CC(C)=CCC/C(C)=C/CC/C(C)=C/COP(=O)(O)OP(=O)(O)O` [Compound 35, Farnesyl-pyrophosphate] yielded a Hill coefficient (Nterm-phos [3]; compound as substrate) of 1.0 ± 0.1, a Km (Nterm-phos [3]; compound as substrate) of 10.1 ± 1.1 µM and a VM (Nterm-phos [3]; compound as substrate) of 12.5 ± 1.0 nmol/min/mg. The “Inhibition (%)” value (Human Cterm-EH; [LP] 10 μM) was 60% and the “Spec. Act.” value (Nterm-phos [1]) was 32 ± 7 nmol/min/mg.
Work on `CC(C)=CCC/C(C)=C/CC/C(C)=C/CC/C(C)=C/COP(=O)(O)OP(=O)(O)O` [Compound 36, Geranylgeranyl-pyrophosphate] yielded a Hill coefficient (Nterm-phos [3]; compound as substrate) of 1.0 ± 0.2, a Km (Nterm-phos [3]; compound as substrate) of 3.4 ± 1.6 µM and a VM (Nterm-phos [3]; compound as substrate) of 4.7 ± 1.1 nmol/min/mg. For the same compound, the “Inhibition (%)” value (Human Cterm-EH; [LP] 10 μM) was 45%.
`CC(C)=CCC/C(C)=C\CC/C(C)=C\COP(=O)(O)O` [Compound 37, Farnesyl monophosphate] was tested, and the “hydrolyzed faster than the corresponding pyrophosphate derivative” value (Nterm-phos [3]) was “approximately 50 fold”, the Hill coefficient (Nterm-phos [3]; compound as substrate) was 1.0 ± 0.1 and the Km (Nterm-phos [3]; compound as substrate) was 5.7 ± 0.4 µM. It also gave a VM (Nterm-phos [3]; compound as substrate) of 303 ± 19 nmol/min/mg.
For `CCCCCCCCCCCCCC=CC(O)C(COP(=O)(O)O)NC(=O)CCCCCCC` (stereo not drawn) [N-Octyl-ceramide-1-phosphate (OCP), N-Octyl-ceramide-1-phosphate], the “Inhibition (%)” value (Human Cterm-EH; [LP] 50 μM) was 31% and the “Spec. Act.” value (Nterm-phos [1]) was <0.3 nmol/min/mg.
For `CCCCCCCCCCCCC/C=C/[C@@H](O)[C@@H](N)COP(=O)(O)O` [Sphingosine-1-phosphate (S1P), Sphingosine-1-phosphate], the inhibition at 40 µM (Human Cterm-EH; [LP] 40 μM) was 2% and the “Spec. Act.” value (Nterm-phos [1]) was 1.1 ± 0.1 nmol/min/mg.
